Source: patent publication US20250375468A1, “NOVEL RAS INHIBITORS” (KHR Biotec GmbH, priority 2022, published 2025)

How the values were obtained:
Experiment in all cases: NanoBit assay for RAS activation (RAS-LgBiT / CRAF RBD-SmBiT)
Type in all cases: cell-based
HRAS G12V = target: T1, HRAS G12V (Homo sapiens, UniProt P01112, G12V); conditions: HRAS G12V with CRAF RBD, 2 h incubation with inhibitor, serum free DMEM
T1 construct: K, N and HRAS G12V (full length) was cloned with Xho I and Bgl Il to LgBit; expressed in transfected cells
Method: (§1) FIGS. 1a) and 1b): NanoBit assay for RAS activation (KRAS G12V, NRAS G12V, HRAS G12V)
(§2) N-terminal LgBiT and C-terminal SmBIT construct was purchased from Promega and K, N and HRAS G12V (full length) was cloned with Xho I and Bgl Il to LgBit and CRAF Ras binding domain (1-149) was cloned with EcoRI and Bgl Il to SmBit. For transfections, 1 μg or 2 μg of (12 well/6 well) plasmids were transfected into cells with 0.5 mM of PEI reagent in 100 μl or 200 μl PBS. One day after transfection, cells were harvested and seeded into 96 well white plates, half area (Greiner). After an additional day the medium was changed to serum free DMEM and the cells were incubated for 2 h with inhibitors. NanoGlo assay was performed according to the manufacturer's instructions. The luminescence was measured using Tecan infinite (Tecan).

KRAS G12V = target: T2, KRAS G12V (Homo sapiens, UniProt P01116, G12V); conditions: KRAS G12V with CRAF RBD, 2 h incubation with inhibitor, serum free DMEM
T2 construct: K, N and HRAS G12V (full length) was cloned with Xho I and Bgl Il to LgBit; expressed in transfected cells
Method: as §1, §2

NRAS G12V = target: T3, NRAS G12V (Homo sapiens, UniProt P01111, G12V); conditions: NRAS G12V with CRAF RBD, 2 h incubation with inhibitor, serum free DMEM
T3 construct: K, N and HRAS G12V (full length) was cloned with Xho I and Bgl Il to LgBit; expressed in transfected cells
Method: as §1, §2

T3 sequence (P01111 whole entry G12V): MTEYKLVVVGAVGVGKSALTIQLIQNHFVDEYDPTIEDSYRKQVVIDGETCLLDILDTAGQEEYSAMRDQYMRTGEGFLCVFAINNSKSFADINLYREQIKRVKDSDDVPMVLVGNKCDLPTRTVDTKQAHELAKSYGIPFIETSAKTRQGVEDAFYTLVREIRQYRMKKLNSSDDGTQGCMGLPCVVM

CC[PH](CC)(CC)[Au][S][C@@H]1O[C@H](COC(C)=O)[C@@H](OC(C)=O)[C@H](OC(C)=O)[C@H]1OC(C)=O [Auranofin, (2,3,4,6-Tetra-O-acetyl-1-thio-β-D-glucopyranosato)(triethylphosphan)gold]
inhibits: RAS activation (NanoBit luminescence), H-RAS (HRAS G12V) | RAS activation (NanoBit luminescence), K-RAS (KRAS G12V) | RAS activation (NanoBit luminescence), N-RAS (NRAS G12V)
